Results as given in patent US5545640A, “Protease inhibiting succinic acid derivatives” (Bio-Mega/Boehringer Ingeleheim Research Inc., priority 1995, dated 1996).
pEC50, pIC50: −log10 of the molar value. Where two headings read alike, the source gives them in different places.

Experiments:
[1] = tested on: HIV (H9/HTLV-IIIB stock) in C8166 cells; assay: Cell culture assay: inhibition of syncytia formation in HIV-infected C8166 cells (antiviral, anti-HIV effect); type: cell-based, HIV (HTLV-IIIB); human T4 cell line; conditions: read-out: EC50 (concentration causing 50% inhibition of syncytia formation)
From the text: Typical of such procedures are those described by S. Harada and N. Yamamoto, Jpn. J. Cancer Res. (Gann), 76, 432 (1985), and S. Harada et al., Science, 229, 563 (1985). An assay based on the latter procedures is described in the examples hereinafter.
In addition, Tables 1 to 8 list the results for exemplified compounds of formula 1 when assayed for antiviral (anti-HIV) effects according to the following protocol which is based on a cell culture assay previously described by Harada et al., supra. Transformed cells are used because of the rapidity with which HIV will replicate in the cells.
1. The test compound is dissolved in dimethylsulfoxide to a concentration of 5 mg/mL. The resultant solution .can be stored at 4° until use.
2. The resultant solution is diluted in RPMI 1640 (Gibco Laboratories, St. Lawrence, Mass., USA) to four times (4×) the final concentration which is to be tested. Once diluted in RPMI 1640, the solution is used in the cell culture assay within 4 h.
3. The latter solution (50 μL) is added to triplicate wells of a 96 well flat bottomed microtiter plate. RPMI (50 μL) also is added to control wells.
4. C8166 cells (5×10^4) in 50 μL of HEPES-buffered RPMI 1640 (pH=7.2), 10% heat inactivated fetal calf serum (FCS), […] gentamicin (complete media) are added to all wells.
5. Fifty times TCID50 of H9/HTLV-IIIB stock (stored in liquid nitrogen as cell culture supernatant in 50% FCS) in 100 μL of complete media is added to all wells. The infectious titer of the virus stocks is as previously determined by end point dilution on C8166 cells. The titer of stocks are stable for 6-12 months when stored at -193°.
6. Microtiter plates are then placed on level shelves of a 37°, 5% CO2 humidified incubator for 72 h.
7. Plates are then removed and centers of syncytia are counted in each well by low power phase contrast light microscopy. […] Control wells should have between 25 and 75 centers of syncytia per well.
8. Percent inhibition of syncytia formation is calculated by the formula: [formula]
The concentration of the test compound which causes a 50% inhibition of syncytia formation, i.e. the EC50, is determined by using the technique of serial dilution of the working solution at step 3 and graphically plotting the observed percent inhibition of syncytia formation against the various concentrations of the test compound.
In the following tables, assay results are listed for the exemplified compounds from the aforementioned recombinant HIV protease HPLC assay under the heading IC50 (nM) and from the cell culture assay under the heading EC50 (nM). Note that for some of the compounds listed in tables, the EC50 's have not been determined (ND).

[2] = target: T1, HIV protease (Human immunodeficiency virus type 1 group M subtype B, UniProt P04585); assay: biochemical; conditions: read-out: IC50 (concentration causing 50% inhibition of HIV protease)
T1 construct: an HIV-encoded enzyme known as HIV protease
From the text: The procedure is based on the capacity of the test compound to inhibit enzymatic cleavage by HIV protease of a decapeptide (the substrate) having an amino acid sequence which includes a known HIV protease cleavage site of a HIV polyprotein; see H. G. Krausslich et al., Proc. Natl. Acad. Sci. USA, 86, 807 (1989).
Anderson, S. Rakhit and C. Yoakim in the European patent application 443 560, published Aug. 28, 1991.

[3] = Human immunodeficiency virus 1, C8166 cells, H9/HTLV-IIIB, 50 times TCID50, 72 h, 37°
[4] = recombinant HIV protease, decapeptide substrate, HPLC assay

| SMILES | pEC50 [1, 3] | pIC50 [2, 4] | pIC50 [2] | pEC50 ([1]; Human immunodeficiency virus 1, IIIB, C8166, 72 h) |
| --- | --- | --- | --- | --- |
| Cc1cccc(C)c1NC(=O)C[C@@H](C(=O)NC[C@@H](O)[C@H](Cc1ccccc1)NC(=O)[C@@H](NC(=O)c1ccc2ccccc2n1)[C@@H](C)O)C(C)(C)C [Entry 46] | 7.52 | 8.70 | – | – |
| Cc1cccc(C)c1NC(=O)C[C@@H](C(=O)NC[C@@H](O)[C@H](Cc1ccccc1)NC(=O)OCc1ccccc1)C(C)(C)C [Entry 72] | 6.44 | 8.52 | – | – |
| CCC(CC)NC(=O)C[C@@H](C(=O)NC[C@@H](O)[C@H](Cc1ccccc1)NC(=O)[C@@H](NC(=O)c1ccc2ccccc2n1)C(C)(C)C)C(C)(C)C [Entry 27] | 7.08 | 8.40 | – | – |
| CCC(CC)NC(=O)C[C@@H](C(=O)NC[C@@H](O)[C@H](Cc1ccccc1)NC(=O)[C@@H](NC(C)=O)C(C)C)C(C)(C)C [Entry 28] | 6.28 | 8.40 | – | – |
| CCC(CC)NC(=O)C[C@@H](C(=O)NC[C@@H](O)[C@H](Cc1ccccc1)NC(=O)[C@H](CO)NC(=O)c1ccc2ccccc2n1)C(C)(C)C [Entry 6] | 6.38 | 7.57 | – | – |
| CCC(CC)NC(=O)C[C@@H](C(=O)NC[C@@H](O)[C@H](Cc1ccccc1)NC(=O)c1ccc(Cl)cc1Cl)C(C)(C)C [Entry 66] | 6.17 | 8.33 | – | – |
| CCC(CC)NC(=O)C[C@@H](C(=O)NC[C@@H](O)[C@H](Cc1ccccc1)NC(=O)c1ccc(Cl)cc1)C(C)(C)C [Entry 65] | 6.07 | 8.06 | – | – |
| CCC(CC)NC(=O)C[C@@H](C(=O)NC[C@@H](O)[C@H](Cc1ccccc1)NC(=O)c1ccccc1C)C(C)(C)C [Entry 68] | 6.43 | 8.19 | – | – |
| CC(C)c1cccc(C(C)C)c1NC(=O)C[C@@H](C(=O)NC[C@@H](O)[C@H](Cc1ccccc1)NC(=O)[C@@H](NC(=O)c1ccc2ccccc2n1)[C@@H](C)O)C(C)(C)C [Entry 42] | 6.08 | 7.72 | – | – |
| CCC(CC)NC(=O)C[C@@H](C(=O)NC[C@@H](O)[C@H](Cc1ccccc1)NC(=O)[C@H](C(C)C)N(C)C(=O)OCc1ccccc1)C(C)(C)C [Entry 13] | 5.72 | 7.92 | – | – |
| CCCC(CCC)NC(=O)C[C@@H](C(=O)NC[C@@H](O)[C@H](Cc1ccccc1)NC(=O)[C@H](CC(N)=O)NC(=O)c1ccc2ccccc2n1)C(C)(C)C [Entry 44] | 7.24 | 8.40 | – | – |
| CCC(CC)NC(=O)CC(C(=O)NC[C@@H](O)[C@H](Cc1ccccc1)NC(=O)[C@H](CC(N)=O)NC(=O)OCc1ccccc1)C(C)(C)C (stereo partly shown) [Entry 49] | – | 7.89 | – | 5.89 |
| CC(C)[C@H](NC(=O)OCc1ccccc1)C(=O)N[C@@H](Cc1ccccc1)[C@H](O)CNC(=O)C(CC(=O)NC(C)(C)C)C(C)(C)C (stereo partly shown) [Entry 51] | 6.70 | – | 8.15 | – |
| CCC(CC)NC(=O)C[C@@H](C(=O)NC[C@@H](O)[C@H](Cc1ccccc1)NC(=O)[C@@H](NC(=O)c1ccc2ccccc2n1)[C@@H](C)O)C(C)(C)C [Entry 23, N^1-(1-Ethylpropyl)-N^4 -{3(S)-{[N-(2-quinolylcarbonyl)threonyl]amino}-2(R)-hydroxy-4-phenylbutyl}-3(R)-tert-butylbutanediamide] | 7.28 | 8.40 | – | – |
| CCc1cccc(CC)c1NC(=O)C[C@@H](C(=O)NC[C@@H](O)[C@H](Cc1ccccc1)NC(=O)[C@@H](NC(=O)c1ccc2ccccc2n1)[C@@H](C)O)C(C)(C)C [Entry 43] | 7.52 | 8.30 | – | – |
| CCC(CC)NC(=O)C[C@@H](C(=O)NC[C@@H](O)[C@H](Cc1ccccc1)NC(=O)COc1c(C)cc(C)cc1C)C(C)(C)C [Entry 70] | 5.92 | 8.34 | – | – |
| CCC(CC)NC(=O)C[C@@H](C(=O)NC[C@@H](O)[C@H](Cc1ccccc1)NC(=O)COc1c(C)cccc1C)C(C)(C)C [Entry 71, N^1-(1-Ethylpropyl)-N^4 -{3(S)-{{(2,6-dimethylphenoxy)acetyl}amino}-2(R)-hydroxy-4-phenylbutyl}-3(R)-tert-butylbutanediamide] | 6.19 | 8.46 | – | – |
| CCC(CC)OC(=O)C[C@@H](C(=O)NC[C@@H](O)[C@H](Cc1ccccc1)NC(=O)[C@H](CC(N)=O)NC(=O)c1ccc2ccccc2n1)C(C)(C)C [Entry 59, 3(R)-tert-butyl-4-{2(R)-hydroxy-4-phenyl-3(S)-{[N-(2-quinolylcarbonyl)asparaginyl]-amino}butylamino}-4-oxobutyric acid 1-ethylpropyl ester] | 6.24 | 8.15 | – | – |
| CCC(CC)NC(=O)C[C@@H](C(=O)NC[C@@H](O)[C@H](Cc1ccccc1)NC(=O)[C@@H](NC(=O)c1cnc2ccccc2n1)[C@@H](C)O)C(C)(C)C [Entry 26] | 7.19 | – | 8.40 | – |
| CCC(CC)NC(=O)C[C@@H](C(=O)NC[C@@H](O)[C@H](Cc1ccccc1)NC(=O)c1cccc(N)c1C)C(C)(C)C [Entry 69] | 6.59 | 8.28 | – | – |
| CCC(CC)NC(=O)C[C@@H](C(=O)NC[C@@H](O)[C@H](Cc1ccc(O)cc1)NC(=O)COc1c(C)cccc1C)C(C)(C)C [Entry 63, N^1-(1-ethylpropyl)-N^4 -{3(S)-{{(2,6-dimethylphenoxy)-acetyl}amino}-2(R)-hydroxy-4-(4-hydroxyphenyl)butyl}-3(R)-tert-butylbutanediamide] | 6.96 | 8.51 | – | – |

Continued, in another order:

| pEC50 [1, 3] | pIC50 [2, 4] | pIC50 [2] | SMILES | pEC50 ([1]; Human immunodeficiency virus 1, IIIB, C8166, 72 h) |
| --- | --- | --- | --- | --- |
| 5.85 | 8.15 | – | CCC(CC)NC(=O)C[C@@H](C(=O)NC[C@@H](O)[C@H](Cc1ccccc1)NC(=O)[C@H](CC(N)=O)NC(=O)C=Cc1ccccc1)C(C)(C)C [Entry 17] | – |
| 6.89 | 8.52 | – | CCC(CC)NC(=O)C[C@@H](C(=O)NC[C@@H](O)[C@H](Cc1ccccc1)NC(=O)[C@H](CC(N)=O)NC(=O)c1ccc2ccccc2n1)C(C)(C)C [Entry 35] | – |
| 6.35 | 8.05 | – | CCC(CC)NC(=O)C[C@@H](C(=O)NC[C@@H](O)[C@H](Cc1ccccc1)NC(=O)[C@H](CC(N)=O)NC(=O)c1ccnc2ccccc12)C(C)(C)C [Entry 15] | – |
| 7.19 | 8.52 | – | CCC(CC)NC(=O)C[C@@H](C(=O)NC[C@@H](O)[C@H](Cc1ccccc1)NC(=O)[C@@H](NC(=O)OCc1ccccc1)C(C)(C)C)C(C)(C)C [Entry 34] | – |
| 6.89 | 8.22 | – | CCC(CC)NC(=O)CC(C(=O)NC[C@@H](O)[C@H](Cc1ccccc1)NC(=O)[C@H](CC(N)=O)NC(=O)c1ccc2ccccc2n1)C(C)(C)C (stereo partly shown) [Entry 52] | – |
| 6.79 | 8.40 | – | CCC(CC)NC(=O)C[C@@H](C(=O)NC[C@@H](O)[C@H](Cc1ccccc1)NC(=O)[C@H](CC(N)=O)NC(=O)c1cc(OC)c2ccccc2n1)C(C)(C)C [Entry 25] | – |
| 6.24 | 8.40 | – | CCC(CC)NC(=O)C[C@@H](C(=O)NC[C@@H](O)[C@H](Cc1ccccc1)NC(=O)[C@H](CC(N)=O)NC(=O)OCCc1ccccc1)C(C)(C)C [Entry 40] | – |
| 6.18 | 7.85 | – | CCC(CC)NC(=O)C[C@@H](C(=O)NC[C@@H](O)[C@H](Cc1ccccc1)NC(=O)[C@H](CC(N)=O)NC(=O)c1cc2ccccc2n1C)C(C)(C)C [Entry 11] | – |
| 7.20 | 8.52 | – | CCC(CC)NC(=O)C[C@@H](C(=O)NC[C@@H](O)[C@H](Cc1ccccc1)NC(=O)[C@@H](NC(=O)OCc1ccccc1)C(C)C)C(C)(C)C [Entry 32] | – |
| 6.57 | 7.82 | – | CCC(CC)NC(=O)C[C@@H](C(=O)NC[C@@H](O)[C@H](Cc1ccccc1)NC(=O)[C@H](CC(N)=O)NC(=O)c1cccc2cccnc12)C(C)(C)C [Entry 10] | – |
| 5.96 | 8.30 | – | CCC(CC)NC(=O)C[C@@H](C(=O)NC[C@@H](O)[C@H](Cc1ccccc1)NC(=O)[C@H](CC(N)=O)NC(=O)CCCc1ccccc1)C(C)(C)C [Entry 21] | – |
